Holding throughout (assay): MMP microfluorometric profiling assay (fluorogenic Mca-peptide substrate)
Holding throughout (type): biochemical

One test has as its target T1, ΔTM-MMP-14 (Homo sapiens, UniProt P50281).
T1 construct: The ectodomain of MMP-14 was expressed in Pichia Pastoris; made in house; host or cells: Pichia pastoris
On the procedure:
(§1) The tested MMP enzymes were prepared more specifically in the laboratories of the applicants, with the exception of MMP-1. MMP-1 from human rheumatoid synovial fibroblasts was purchased from Calbiochem-Novabiochem Corporation, LaJolla. Preparation of the recombinant catalytic domain of human Gelatinase A (cdMMP-2): The catalytic domain of Pro-Gelatinase A was prepared using an E. coli expression system according to the method described by Kröger et al^[19]. The proenzyme was activated with 0.5 mM APMA at 37°C prior to use in the assay. Preparation of the recombinant catalytic domain of human neutrophile Collagenase (cdMMP-8^Met80): The enzyme was expressed in E. coli as an active variant by the method of Kleine et al^[20]. Preparation of PMNL-Gelatinase (MMP-9): Latent PMNL-pro-Gelatinase was prepared from human plasma buffy coat as described by Tschesche et al^[21]. PMNL-pro-Gelatinase was activated prior to use by incubation with Trypsin at 37°C for 10 min. Inactivation of Trypsin was accomplished with TKI. Preparation of the recombinant catalytic domain of human Macrophage Elastase (cdMMP-12): The catalytic domain of MMP-12 was expressed in E. coli. The overexpressed protein was isolated as inclusion bodies and the renatured protein was purified by affinity chromatography with a hydroxamate inhibitor coupled column as described^[22]. Preparation of the recombinant catalytic domain of human Collagenase-3 (cdMMP-13): Human pro-cdMMP-13 was prepared using an E. coli expression system according to the method described^[23]. The isolated pro-cdMMP-13 was activated prior to use by incubation with 5 mM HgCl2 for 2 h at 37°C. Preparation of the recombinant catalytic domain of Membrane-Type-1 MMP (cdMMP-14): The catalytic domain of MMP-14 was expressed in E. coli and was activated by autocatalysis^[24]. Preparation of the recombinant human ectodomain of Membrane-Type-1 MMP (ΔTM-MMP-14): The ectodomain of MMP-14 was expressed in Pichia Pastoris by the method of Roderfeld et al. and activated by yeast proteases (Furin-like-proteases) during maturation^[25].
(§2) The enzymatic activity was measured using a modified version of a resonance energy transfer fluorogenic assay as described^[26]. Progress curves were monitored by following the increase in fluorescence at 393 nm (λex = 328 nm), induced by the cleavage of the (7-methoxycoumarin-4-yl)acetyl-Pro-Leu-Gly-Leu-(3-[2,4-dinitro-phenyl]-L-2,3-diamino-propionyl)-Ala-Arg-NH2 (Mca-Pro-Leu-Gly-Leu-Dpa-Ala-Arg-NH2) fluorogenic substrate by MMPs. The fluorescent MCA-group is quenched by resonance energy transfer to the 2,4-dinitrophenyl group. Matrix metalloproteinases cleave this substrate at the Gly-Leu bond. Cleavage results in the loss of energy transfer and a large increase in fluorescence of the MCA group. This substrate is commercially available from Bachem, Switzerland.
(§3) Enzyme inhibition assays were carried out in MRB which consisted of 50 mM HEPES/NaOH, pH 7.0, 10 mM CaCl2 and 0,02% (w/v) PEG 8000 at 25°C. MMP microfluorometric profiling assay was done in white U-bottomed 96-well plates (Microfluor 1 White, Dynex, USA) with a final substrate concentration of 6 µM MCA-peptide, approximately 0.3 to 5 nM MMP with variable inhibitor concentrations and 2% DMSO vehicle. From a 1.5 mM stock (100% DMSO) the inhibitors were serially diluted with MRB to 15, 10, 5, 3, 1, 0.6, 0.3, 0.1, 0.05, 0.01 and 0.005 µM final assay concentration. Column 1, rows A through H, contained only DMSO for the "enzyme-only" wells in the assay. After preincubation for 30 min at 25°C the reaction was started by addition of substrate and the plate was read on a SpectraFluor Plus (Tecan, Germany) plate reader with excitation at 330 nm and emission at 405 nm with the gain set to 150. Each measurement was done in triplicate to ensure statistically significant results. […]

The target in another test is T2, MMP-9 (Homo sapiens, UniProt P14780).
T2 construct: from tissue; host or cells: human plasma buffy coat (PMNL)
T2 sequence (P14780 107-707 limits assumed): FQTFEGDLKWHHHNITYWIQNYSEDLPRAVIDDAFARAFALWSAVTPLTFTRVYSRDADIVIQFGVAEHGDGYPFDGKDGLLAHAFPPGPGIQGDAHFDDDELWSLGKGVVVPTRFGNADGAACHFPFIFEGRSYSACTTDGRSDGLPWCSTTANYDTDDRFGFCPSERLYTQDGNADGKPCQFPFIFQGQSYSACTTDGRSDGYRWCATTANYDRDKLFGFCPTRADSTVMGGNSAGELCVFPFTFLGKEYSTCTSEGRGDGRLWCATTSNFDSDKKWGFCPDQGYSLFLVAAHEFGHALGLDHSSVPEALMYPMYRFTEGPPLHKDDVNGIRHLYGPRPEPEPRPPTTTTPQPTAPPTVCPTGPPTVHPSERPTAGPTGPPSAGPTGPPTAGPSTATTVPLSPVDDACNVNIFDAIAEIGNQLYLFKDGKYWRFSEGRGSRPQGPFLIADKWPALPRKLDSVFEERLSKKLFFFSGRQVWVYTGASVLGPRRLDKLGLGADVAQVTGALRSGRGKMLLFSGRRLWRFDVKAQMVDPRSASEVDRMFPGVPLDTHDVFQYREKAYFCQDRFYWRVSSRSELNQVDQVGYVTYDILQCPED
The method, then: as §1, §2, §3

Another test deals with T3, cdMMP-12 (Homo sapiens, UniProt P39900).
T3 construct: The catalytic domain of MMP-12 was expressed in E. coli; made in house; host or cells: E. coli
T3 sequence (P39900 106-263 limits assumed): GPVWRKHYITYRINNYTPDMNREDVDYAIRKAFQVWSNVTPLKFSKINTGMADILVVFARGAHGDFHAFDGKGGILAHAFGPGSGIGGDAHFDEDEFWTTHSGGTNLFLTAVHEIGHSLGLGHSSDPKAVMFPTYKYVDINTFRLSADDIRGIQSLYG
On the procedure:
as §1, §2, §3

In a further test the target is cdMMP-13 (Homo sapiens, UniProt P45452). The method, then: as §1, §2, §3
For another test, the target named is T4, MMP-1 (Homo sapiens, UniProt P03956).
T4 construct: MMP-1 from human rheumatoid synovial fibroblasts was purchased; purchased Calbiochem-Novabiochem Corporation, LaJolla; host or cells: human rheumatoid synovial fibroblasts
T4 sequence (P03956 100-469): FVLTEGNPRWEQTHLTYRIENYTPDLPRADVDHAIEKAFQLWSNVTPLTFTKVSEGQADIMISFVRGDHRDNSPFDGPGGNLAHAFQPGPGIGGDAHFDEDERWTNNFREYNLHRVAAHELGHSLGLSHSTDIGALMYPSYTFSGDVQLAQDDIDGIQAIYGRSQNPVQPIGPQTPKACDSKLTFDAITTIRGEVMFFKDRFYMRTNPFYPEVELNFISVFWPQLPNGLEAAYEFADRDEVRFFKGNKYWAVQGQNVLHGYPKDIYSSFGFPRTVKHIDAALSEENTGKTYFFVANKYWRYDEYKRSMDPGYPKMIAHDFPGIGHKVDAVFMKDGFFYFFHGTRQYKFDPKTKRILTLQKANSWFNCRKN
On the procedure: as §1, §2, §3

In a further test the target is T5, cdMMP-14 (Homo sapiens, UniProt P50281).
T5 construct: made in house; host or cells: E. coli
The method, then:
as §1, §2, §3

Like-named read-outs stand apart in the source and are kept apart here.

The term IC50 denotes the concentration needed to halve the response being measured. Turning to `C[C@@H](NS(=O)(=O)c1ccccc1)C(=O)NC1=NN=C(c2ccc(C#N)cc2)CS1` [Example 1, (2R)-N-[5-(4-Cyanophenyl)-6H-1,3,4-thiadiazine-2-yl]-2-[(phenylsulfonyl)amino]-propanamide], the IC50 against ΔTM-MMP-14 was 610 nM; against MMP-9, 232 nM; on cdMMP-12, 444 nM; at cdMMP-13 (read-out: cdMMP-13 IC50), 368 nM; on MMP-1, 451 nM; on cdMMP-14, 346 nM.

In the case of `C[C@H](NS(=O)(=O)c1cccnc1)C(=O)NC1=NN=C(c2ccc(Cl)cc2)CS1` [Example 29, (2S)-N-[5-(4-Chlorophenyl)-6H-1,3,4-thiadiazin-2-yl]-2-[(3-pyridylsulfonyl)-amino]propanamide], the IC50 on ΔTM-MMP-14 worked out at 430 nM; at MMP-9, 257 nM; on cdMMP-12, 403 nM; at cdMMP-13 (read-out: cdMMP-13 IC50) it was 361 nM; against MMP-1, 507 nM; on cdMMP-14, 443 nM.

Regarding `O=C1C[C@@H](C(=O)NC2=NN=C(c3ccc(Cl)cc3)CS2)NC(=O)N1` [Example 30, (4S)-N-[5-(4-Chlorophenyl)-6H-1,3,4-thiadiazin-2-yl]-2,6-dioxohexahydro-4-pyrimidinecarboxamide], the IC50 on ΔTM-MMP-14 turned out to be 692 nM; against MMP-9, 780 nM; on cdMMP-12 it was 654 nM; at cdMMP-13 (read-out: cdMMP-13 IC50), 947 nM; against MMP-1, 560 nM; at cdMMP-14, 477 nM.

As to `C[C@H](NS(=O)(=O)c1ccccc1)C(=O)NC1=NN=C(c2ccc(Cl)s2)CS1` [Example 10, (2S)-N-[5-(5-Chloro-2-thienyl)-6H-1,3,4-thiadiazin-2-yl]-2-[(phenylsulfonyl)-amino]propanamide], the half-inhibitory concentration (IC50) against ΔTM-MMP-14 stood at 357 nM; against MMP-9 it was 722 nM; against cdMMP-12 it was 298 nM; at cdMMP-13 (read-out: cdMMP-13 IC50), 853 nM; on MMP-1, 520 nM; on cdMMP-14, 605 nM.

As for `CC(C)(C)c1ccc(S(=O)(=O)NCC(=O)NC2=NN=C(c3ccc(Cl)cc3Cl)CS2)cc1` [Example 18, 2-{[(4-tert-Butylphenyl)sulfonyl]amino}-N-[5-(2,4-dichlorophenyl)-6H-1,3,4-thiadiazin-2-yl]acetamide], the half-maximal inhibitory concentration (IC50) on ΔTM-MMP-14 is 887 nM; against MMP-9, 2600 nM; at cdMMP-12, 657 nM; on cdMMP-13 (read-out: cdMMP-13 IC50) it was 1410 nM; against MMP-1, 424 nM; at cdMMP-14, 780 nM.

In the case of `C[C@H](NS(=O)(=O)c1ccccc1)C(=O)NC1=NN=C(c2ccc(C#N)cc2)CS1` [Example 3, (2S)-N-[5-(4-Cyanophenyl)-6H-1,3,4-thiadiazin-2-yl]-2-[(phenylsulfonyl)amino]-propanamide], the IC50 against ΔTM-MMP-14 was 709 nM; on MMP-9 it was 329 nM; on cdMMP-12, 447 nM; on cdMMP-13 (read-out: cdMMP-13 IC50), 387 nM; against MMP-1, 449 nM; at cdMMP-14, 459 nM.

Turning to `C[C@H](NS(=O)(=O)c1ccccc1)C(=O)NC1=NN=C(c2ccc(C(F)(F)F)cc2)CS1` [Example 4, (2S)-2-[(Phenylsulfonyl)amino]-N-{5-[4-(trifluormethyl)phenyl]-6H-1,3,4-thiadiazin-2-yl}propanamide], the IC50 against ΔTM-MMP-14 was 708 nM; on MMP-9, 1040 nM; at cdMMP-12, 367 nM; against cdMMP-13 it was 1030 nM; against MMP-1, 490 nM; against cdMMP-14, 1100 nM.

`C[C@@H](NS(=O)(=O)c1ccccc1)C(=O)NC1=NN=C(c2ccc(F)cc2)CS1` [Example 14, (2R)-N-[5-(4-Fluorophenyl)-6H-1,3,4-thiadiazin-2-yl]-2-[(phenylsulfonyl)amino]-propanamide]: the IC50 on ΔTM-MMP-14 was determined as 596 nM; against MMP-9, 216 nM; on cdMMP-12, 425 nM; on cdMMP-13 (read-out: cdMMP-13 IC50) it was 537 nM; at MMP-1, 725 nM; against cdMMP-14, 727 nM.

The values above are taken from patent EP1191024A1, “Thiadiazines and their use as inhibitors of metalloproteinases” (Tschesche, Harald, priority 2000, dated 2002).
